Source: US12077503B2, “Substituted cyclic amides and their use as herbicides” (FMC CORPORATION, priority 2015, dated 2024)

Assays:
Format in all cases: in vivo
[1] = test system: ragweed (common ragweed, Ambrosia elatior); assay: Test A postemergence
Description: (§1) Seeds of plant species selected from barnyardgrass (Echinochloa crus-galli), Kochia (Kochia scoparia), ragweed (common ragweed, Ambrosia elatior), ryegrass, Italian (Italian ryegrass, Lolium multiflorum), crabgrass, large (Digitaria sanguinalis), giant foxtail (Setaria faberii), green foxtail (Setaria viridis), morningglory (Ipomoea spp.), pigweed (Amaranthus retroflexus), velvetleaf (Abutilon theophrasti), wheat (Triticum aestivum), and corn (Zea mays) were planted into a blend of loam soil and sand and treated preemergence with a directed soil spray using test chemicals formulated in anon-phytotoxic solvent mixture which included a surfactant.
(§2) At the same time, plants selected from these crop and weed species and also blackgrass (Alopecurus myosuroides), and Galium (catchweed bedstraw, Galium aparine) were planted in pots containing the same blend of loam soil and sand and treated with postemergence applications of test chemicals formulated in the same manner. Plants ranged in height from 2 to 10 cm and were in the one- to two-leaf stage for the postemergence treatment. Treated plants and untreated controls were maintained in a greenhouse for approximately 10 d, after which time all treated plants were compared to untreated controls and visually evaluated for injury. Plant response ratings, summarized in Table A, are based on a 0 to 100 scale where 0 is no effect and 100 is complete control. A dash (-) response means no test result.

[2] = test system: pigweed (Amaranthus retroflexus); assay: Test A postemergence
Description: as §1, §2

corn (Zea mays) = assay: Test A postemergence
Description: as §1, §2

[3] = test system: wheat (Triticum aestivum); assay: Test A postemergence
Description: as §1, §2

[4] = test system: Galium (catchweed bedstraw, Galium aparine); assay: Test A postemergence
Description: as §1, §2

[5] = test system: giant foxtail (Setaria faberii); assay: Test A postemergence
Description: as §1, §2

[6] = test system: blackgrass (Alopecurus myosuroides); assay: Test A postemergence
Description: as §1, §2

[7] = test system: barnyardgrass (Echinochloa crus-galli); assay: Test A postemergence
Description: as §1, §2

[8] = test system: ryegrass, Italian (Italian ryegrass, Lolium multiflorum); assay: Test A postemergence
Description: as §1, §2

Kochia (Kochia scoparia) [9] = assay: Test A postemergence
Description: as §1, §2

[10] = test system: ragweed (common ragweed, Ambrosia elatior); assay: Test A preemergence; details: Preemergence; for Plant response rating, Ragweed: 125 g ai/ha, visual injury after approximately 10 d, 0 to 100 scale where 0 is no effect and 100 is complete control; for Ragweed plant response rating (0 to 100 scale, 0 is no effect, 100 is complete control): 500 g ai/ha, visual injury approx. 10 d
Description: as §1, §2

[11] = test system: pigweed (Amaranthus retroflexus); assay: Test A preemergence; details: Preemergence; for Plant response rating, Pigweed: 125 g ai/ha, visual injury after approximately 10 d, 0 to 100 scale where 0 is no effect and 100 is complete control; for Pigweed plant response rating (0 to 100 scale, 0 is no effect, 100 is complete control): 500 g ai/ha, visual injury approx. 10 d
Description: as §1, §2

[12] = test system: giant foxtail (Setaria faberii); assay: Test A preemergence; details: Preemergence; for Plant response rating, Foxtail, Giant: 125 g ai/ha, visual injury after approximately 10 d, 0 to 100 scale where 0 is no effect and 100 is complete control; for Foxtail, Giant plant response rating (0 to 100 scale, 0 is no effect, 100 is complete control): 500 g ai/ha, visual injury approx. 10 d
Description: as §1, §2

[13] = test system: barnyardgrass (Echinochloa crus-galli); assay: Test A preemergence; details: Preemergence; for Plant response rating, Barnyardgrass: 125 g ai/ha, visual injury after approximately 10 d, 0 to 100 scale where 0 is no effect and 100 is complete control; for Barnyardgrass plant response rating (0 to 100 scale, 0 is no effect, 100 is complete control): 500 g ai/ha, visual injury approx. 10 d
Description: as §1, §2

[14] = test system: ryegrass, Italian (Italian ryegrass, Lolium multiflorum); assay: Test A preemergence; details: Preemergence; for Plant response rating, Ryegrass, Italian: 125 g ai/ha, visual injury after approximately 10 d, 0 to 100 scale where 0 is no effect and 100 is complete control; for Ryegrass, Italian plant response rating (0 to 100 scale, 0 is no effect, 100 is complete control): 500 g ai/ha, visual injury approx. 10 d
Description: as §1, §2

Kochia (Kochia scoparia) [15] = assay: Test A preemergence; details: Preemergence; for Plant response rating, Kochia: 125 g ai/ha, visual injury after approximately 10 d, 0 to 100 scale where 0 is no effect and 100 is complete control; for Kochia plant response rating (0 to 100 scale, 0 is no effect, 100 is complete control): 500 g ai/ha, visual injury approx. 10 d
Description: as §1, §2

[16] = 125 g ai/ha, postemergence, visual rating after approx. 10 d, 0 to 100 scale (0 no effect, 100 complete control)
[17] = Postemergence, 500 g ai/ha, 0 to 100 scale where 0 is no effect and 100 is complete control

SMILES	Plant response rating, Ragweed [1, 16]	Plant response rating, Ragweed [1, 17]	Plant response rating, Pigweed [2, 16]	Plant response rating, Pigweed [2, 17]	Plant response rating, Corn (corn (Zea mays); [16])	Plant response rating, Corn (corn (Zea mays); [17])	Plant response rating, Wheat [3, 16]	Plant response rating, Wheat [3, 17]	Plant response rating, Galium [4, 16]	Plant response rating, Galium [4, 17]	Plant response rating, Foxtail, Giant [5, 16]	Plant response rating, Foxtail, Giant [5, 17]	Plant response rating, Blackgrass [6, 16]	Plant response rating, Blackgrass [6, 17]	Plant response rating, Barnyardgrass [7, 16]	Plant response rating, Barnyardgrass [7, 17]	Plant response rating, Ryegrass, Italian [8, 16]	Plant response rating, Ryegrass, Italian [8, 17]	Plant response rating, Kochia (Kochia (Kochia scoparia) [9]; [16])	Plant response rating, Kochia (Kochia (Kochia scoparia) [9]; [17])	other results
O=C1NCC(c2cccc(C(F)(F)F)c2)C1C(=O)Nc1ccccc1O (stereo not shown) [Compound 557]	0	0	0	0	0	0	0	0	0	0	0	0	0	0	0	0	0	0	0	0	Plant response rating, Ragweed [10]: 0; Ragweed plant response rating (0 to 100 scale, 0 is no effect, 100 is complete control) [10]: 0; Plant response rating, Pigweed [11]: 0; Pigweed plant response rating (0 to 100 scale, 0 is no effect, 100 is complete control) [11]: 0; Plant response rating, Foxtail, Giant [12]: 0; Foxtail, Giant plant response rating (0 to 100 scale, 0 is no effect, 100 is complete control) [12]: 0; Plant response rating, Barnyardgrass [13]: 0; Barnyardgrass plant response rating (0 to 100 scale, 0 is no effect, 100 is complete control) [13]: 0; Plant response rating, Ryegrass, Italian [14]: 0; Ryegrass, Italian plant response rating (0 to 100 scale, 0 is no effect, 100 is complete control) [14]: 0; Plant response rating, Kochia (Kochia (Kochia scoparia) [15]): 0; Kochia plant response rating (0 to 100 scale, 0 is no effect, 100 is complete control) (Kochia (Kochia scoparia) [15]): 0
CN1CC(c2ccc(Br)cc2)C(C(=O)Nc2ccccc2S(C)(=O)=O)C1=O (stereo not shown) [Compound 565]	0	50	20	60	0	20	0	40	60	60	80	90	40	60	80	90	20	30	20	60	Plant response rating, Ragweed [10]: 50; Ragweed plant response rating (0 to 100 scale, 0 is no effect, 100 is complete control) [10]: 50; Plant response rating, Pigweed [11]: 70; Pigweed plant response rating (0 to 100 scale, 0 is no effect, 100 is complete control) [11]: 80; Plant response rating, Foxtail, Giant [12]: 90; Foxtail, Giant plant response rating (0 to 100 scale, 0 is no effect, 100 is complete control) [12]: 90; Plant response rating, Barnyardgrass [13]: 80; Barnyardgrass plant response rating (0 to 100 scale, 0 is no effect, 100 is complete control) [13]: 90; Plant response rating, Ryegrass, Italian [14]: 0; Ryegrass, Italian plant response rating (0 to 100 scale, 0 is no effect, 100 is complete control) [14]: 40; Plant response rating, Kochia (Kochia (Kochia scoparia) [15]): 70; Kochia plant response rating (0 to 100 scale, 0 is no effect, 100 is complete control) (Kochia (Kochia scoparia) [15]): 90
CCc1cccc(C2CN(C)C(=O)C2C(=O)Nc2ccccc2F)c1 (stereo not shown) [Compound 567]	0	0	20	20	70	90	30	60	40	50	90	90	60	80	90	100	70	70	20	50	Plant response rating, Ragweed [10]: 50; Ragweed plant response rating (0 to 100 scale, 0 is no effect, 100 is complete control) [10]: 60; Plant response rating, Pigweed [11]: 20; Pigweed plant response rating (0 to 100 scale, 0 is no effect, 100 is complete control) [11]: 40; Plant response rating, Foxtail, Giant [12]: 100; Foxtail, Giant plant response rating (0 to 100 scale, 0 is no effect, 100 is complete control) [12]: 100; Plant response rating, Barnyardgrass [13]: 100; Barnyardgrass plant response rating (0 to 100 scale, 0 is no effect, 100 is complete control) [13]: 100; Plant response rating, Ryegrass, Italian [14]: 60; Ryegrass, Italian plant response rating (0 to 100 scale, 0 is no effect, 100 is complete control) [14]: 80; Plant response rating, Kochia (Kochia (Kochia scoparia) [15]): 60; Kochia plant response rating (0 to 100 scale, 0 is no effect, 100 is complete control) (Kochia (Kochia scoparia) [15]): 80
Cc1c(F)cccc1NC(=O)C1C(=O)N(C)CC1c1cccc(C(F)(F)F)c1 (stereo not shown) [Compound 573]	20	60	30	40	80	90	70	70	60	70	90	90	70	70	90	100	70	90	50	60	Plant response rating, Ragweed [10]: 0; Ragweed plant response rating (0 to 100 scale, 0 is no effect, 100 is complete control) [10]: 50; Plant response rating, Pigweed [11]: 40; Pigweed plant response rating (0 to 100 scale, 0 is no effect, 100 is complete control) [11]: 80; Plant response rating, Foxtail, Giant [12]: 90; Foxtail, Giant plant response rating (0 to 100 scale, 0 is no effect, 100 is complete control) [12]: 100; Plant response rating, Barnyardgrass [13]: 90; Barnyardgrass plant response rating (0 to 100 scale, 0 is no effect, 100 is complete control) [13]: 100; Plant response rating, Ryegrass, Italian [14]: 80; Ryegrass, Italian plant response rating (0 to 100 scale, 0 is no effect, 100 is complete control) [14]: 90; Plant response rating, Kochia (Kochia (Kochia scoparia) [15]): 70; Kochia plant response rating (0 to 100 scale, 0 is no effect, 100 is complete control) (Kochia (Kochia scoparia) [15]): 80
CN1CC(c2cccc(C(F)(F)F)c2)C(C(=O)Nc2cccc(Cl)c2F)C1=O (stereo not shown) [Compound 574]	0	0	20	40	60	80	40	70	40	50	80	80	60	70	90	90	50	70	30	60	Plant response rating, Ragweed [10]: 0; Ragweed plant response rating (0 to 100 scale, 0 is no effect, 100 is complete control) [10]: 0; Plant response rating, Pigweed [11]: 20; Pigweed plant response rating (0 to 100 scale, 0 is no effect, 100 is complete control) [11]: 50; Plant response rating, Foxtail, Giant [12]: 90; Foxtail, Giant plant response rating (0 to 100 scale, 0 is no effect, 100 is complete control) [12]: 90; Plant response rating, Barnyardgrass [13]: 90; Barnyardgrass plant response rating (0 to 100 scale, 0 is no effect, 100 is complete control) [13]: 90; Plant response rating, Ryegrass, Italian [14]: 40; Ryegrass, Italian plant response rating (0 to 100 scale, 0 is no effect, 100 is complete control) [14]: 80; Plant response rating, Kochia (Kochia (Kochia scoparia) [15]): 40; Kochia plant response rating (0 to 100 scale, 0 is no effect, 100 is complete control) (Kochia (Kochia scoparia) [15]): 70
